Assay results: patent US6124342A, “Pharmaceutical compositions containing pyrylium compounds, pyrylium salts and process for manufacturing a medicament containing the aforesaid compounds” (priority 1993, dated 2000)
“And” between values parts separate entries of the source, which are not always exact repeats. Equal entries are not always repeated. Where two headings read alike, the source gives them in different places.

Tests used:
[1] = Light absorption characteristics without DNA (Table 2); type: physicochemical
Description: (§1) Typical examples of compounds represented by the formula [I] which can be used as the active ingredient in a medicament for the photochemical treatment of cancer according to the present invention are shown in Table 1 below. Almost all the compound shown in Table 2 have their own absorption peaks in the region 600 nm or above, and have molar absorption coefficients as large as 5-8.5×10^4 l/mol.cm which enables more efficient use to be made of the light in photochemical treatment. Furthermore, compound 1 in Table 2 has an absorption peak in the region below 600 nm, but it has sufficiently strong absorption that it still provides better treatment efficiency at wavelength greater than 600 nm.

[2] = tested on: DNA; assay: Light absorption characteristics under existence of DNA (Table 2); type: physicochemical; conditions: with DNA
Description: as §1

[3] = tested on: nude mice; assay: Acute toxicity test, intravenous injection; type: in vivo; conditions: balanced saline solution; i.v. leg vein; 1 mg/kg; 2 nude mice
Protocol: The compound 1 (Y=I) was dissolved into a balanced saline solution and was injected into each of 2 nude mice of weight 200-400 g through a vein in the leg of the mouse. The amount of solution injected was 1 mg to 1 kg of the weight of each mouse.
The toxicity test of Example 6 was repeated except that the compound 2 was used in place of the compound 1.
The test of Example 6 was repeated except that the compound 1 (Y=I) was dissolved in dimethyl sulfoxide. The amount of solution injected was 1 mg per 1 kg of the mouse's weight. Subsequent injections on further groups of mice were carried out at 5 mg per 1 kg of the mouse's weight and 25 mg per 1 kg of the mouse's weight.
The same test as in Example 8 was carried out except that the active ingredient was compound 2 (Y=I) instead of compound 1.

[4] = tested on: KATO III; assay: Photochemical treatment of KATO III tumours in nude mice; type: in vivo, human; conditions: Tables 6 and 7
Protocol: (§2) Ten nude mice having weight 200-400 g were selected, and they were separated into five groups referred to as A, B, C, D and E, each containing two nude mice. Each of the mice was inocculated on its back with KATO III, which is a culture of stomach cancer cells from a human patient. The cancer cells were inocculated into the central part of the back of each mouse, after which the mice were kept for ten days. […] The mice in groups A, B and E were injected with the compound 1 (Y=I) in balanced saline solution through a vein in the leg. The amount of compound 1 which was administered to each mouse was 1 mg per 1 kg of the mouse's weight. Thereafter, the cancerous growth in each mouse in the group A and C was irradiated with white light in which the radiation of wavelength 400 nm or less and radiation of wavelength 1000 nm or above was filtered out. In group E, a part of every mouse's back was irradiated with the white light. In each case the amount of irradiation was 50J. Thereafter, the cancerous region of each mouse in the group a to D was observed and the skin of each mouse in the group E was observed.
The same test as in Example 10 was carried out except that the compound 2 was used in place of the compound 1. the results are shown in Table 7.

[5] = tested on: skin of each mouse; assay: Irradiation of the back skin of medicated mice without tumour; type: in vivo, nude mice; conditions: for change on irradiation of mice without tumour: group E or E'; for affinity for cancer cells versus normal cells: inferred from group E or E'
Protocol: as §2, with “The amount of compound 1 which was administered to each mouse was 1 mg per 1 kg of the mouse's weight. Thereafter, the cancerous growth in each mouse in the group A and C was irradiated with white light in which the radiation of wavelength 400 nm or less and radiation of wavelength 1000 nm or above was filtered out.” left out

[6] = tested on: L-929 cells; assay: Photochemical killing of cultured cancer cells (fluorescence microscope irradiation); conditions: for cytotoxicity at 0.05 µg/mL: read-out: percentage of cells which died, 0.05 μg/ml; for cytotoxicity at 0.075 µg/mL: read-out: percentage of cells which died, 0.075 μg/ml; for cell killing without irradiation: compound added, not irradiated; for cytotoxicity at 0.25 µg/mL: read-out: percentage of cells which had died, 0.25 μg/ml; for cytotoxicity at 0.5 µg/mL: read-out: percentage of cells which had died, 0.5 μg/ml
Protocol: L-929 cells which are typical cultured cancer cells from mice were planted onto a culture medium containing E-MEM +10% FCS. The density of the cells in the medium was 10^6 cells/dish (20 ml). Thereafter, the cells were maintained at 37° C. and cultured for 36 hours. Four such cultures using the same medium were prepared. […] Then radiation of wavelength from 560-610 nm to which the compound 1 is responsive was supplied using a fluorescence microscope for the interval of time indicated in Table 3. Thereafter, each medium was cultured for 12 hours, after which the cells were observed using a microscope.
The light used to irradiate the cells at a wavelength of 600-650 nm.
The cells were irradiated with light of wavelength 700-750 nm.

[7] = tested on: cancer cells; assay: Uptake by cancer cells; type: cell-based, mice
Protocol: Four such cultures using the same medium were prepared.

[8] = tested on: KATO III; assay: Deepness of necrotic tumour after irradiation; type: in vivo, human; conditions: 1 mg/kg; 580 nm (half-width=20 nm); 10J; one day after irradiation
Protocol: Four nude mice of weight 200-400 g were selected and were separated into groups X and Y, each containing two mice. Next, KATO III was inocculated into every mouse in the same way as in Example 10, after which the mice were kept for three weeks to fix the cancer cells. After three weeks the cancer in each mouse had grown and the size of the cancer was about 13 mm wide, 13 mm long and about 8 mm high. Next the mice in group X were injected via the leg with a balanced saline solution of the compound 1, and the mice of Group Y were injected with a balanced saline solution of the compound 16 via the leg. The dose of the compound 1 or 16 was adjusted to be 1 mg of the compound 1 or the compound 16 per 1 kg of the mouse's weight. Subsequently, the mice in group X were irradiated with radiation of wavelength 580 nm (half-width=20 nm) which was separated by means of a filter, and the mice in group Y were irradiated with radiation having a wavelength 720 nm (half-width=20 nm) which was separated with a filter. The amount of energy irradiated was 10J. One day after the irradiation the depth of the tumour which had become necrotic was measured.

[9] = Mus musculus, L929, 1 min, 1 min, 600-650 nm, Y=I
[10] = Mus musculus, L929, 0.05 h, 3 min, 600-650 nm, Y=I
[11] = Mus musculus, L929, 5 min, 5 min, 600-650 nm, Y=I
[12] = Mus musculus, L929, 12 h, 3 min, 560-610 nm, Y=I
[13] = Mus musculus, L929, 12 h, 5 min, 560-610 nm, Y=I

Row | SMILES | Absorption (max) Peak Under no existence of DNA [1] [nm] | Absorption (max) Peak Under existence of DNA [2] [nm] | Molar absorption coefficient ε [1] [L/mol/cm] | adverse effects (acute toxicity) [3] | effectiveness in photochemical treatment of human cancer cells growing in live mice [4] | change on irradiation of mice without tumour [5] | affinity for cancer cells versus normal cells [5] | cell killing without irradiation [6] | also measured
1 | CN(C)c1ccc(C=Cc2cc(-c3ccccc3)cc(-c3ccccc3)[s+]2)cc1 [Compound 8] | 650 | 610 |  |  |  |  |  |  | 
2 | Cc1cc(-c2ccc(N(C)C)cc2)cc(-c2ccc(N(C)C)cc2)[s+]1 [Compound 2, 2-methyl-4,6-bis-(4-N,N-dimethylaminophenyl)thiopyrylium iodide] | 580 | 620 | 49500 | no ill effects | effective in the photochemical treatment of human cancer cells growing in live mice | no change was observed | different from the affinity | not killed and continued to grow in culture | Change of skin ([5]; Table 7, group E': medicated, irradiated): No Change; cytotoxicity at 0.05 µg/mL [6, 9]: ~10%; cytotoxicity at 0.075 µg/mL [6, 9]: 80%; cytotoxicity at 0.1 µg/mL ([6]; Mus musculus, L929, 1 min, read-out: percentage of cells which died, 0.1 μg/ml, 1 min, 600-650 nm, Y=I): 100%; cytotoxicity at 0.05 µg/mL [6, 10]: 80%; cytotoxicity at 0.075 µg/mL [6, 10]: 100%; cytotoxicity at 0.1 µg/mL ([6]; Mus musculus, L929, 0.05 h, read-out: percentage of cells which died, 0.1 μg/ml, 3 min, 600-650 nm, Y=I): 100%; cytotoxicity at 0.025 µg/mL ([6]; Mus musculus, L929, 5 min, read-out: percentage of cells which died, 0.025 μg/ml, 5 min, 600-650 nm, Y=I): ~50%; cytotoxicity at 0.05 µg/mL [6, 11]: 100%; cytotoxicity at 0.075 µg/mL [6, 11]: 100%; cytotoxicity at 0.1 µg/mL ([6]; Mus musculus, L929, 5 min, read-out: percentage of cells which died, 0.1 μg/ml, 5 min, 600-650 nm, Y=I): 100%; killing effect compared with another compound ([6]; with irradiation): greater killing effect than compound 1
3 | Cc1cc(-c2ccc(N(C)C)cc2)cc(-c2ccc(N(C)C)cc2)[o+]1 [Compound 1, 2-methyl-4,6-bis-(4-N,N-dimethylaminophenyl) pyrylium iodide] | 540 | 580 | 84600 | no adverse effects | effective in the photochemical treatment of human cancer cells growing in live mice | no change was observed | different from the affinity | not killed and continued to grow in culture | absorption peak region ([1]; Table 2): below 600 nm; uptake by the cancer cells [7]: rapid; Change of skin ([5]; Table 6, group E: 1 mg/kg i.v., irradiated 50J): No Change; Deepness of died tumour [8]: 4.5 mm and 4.8 mm; effectiveness to kill cancer cells ([6]; 0.1-0.5 μg/ml, irradiation 1-5 minutes): effective to kill cancer cells; cytotoxicity at 0.1 µg/mL ([6]; Mus musculus, L929, 12 h, read-out: percentage of cells which had died, 0.1 μg/ml, 5 min, 560-610 nm, Y=I): 100%; cytotoxicity at 0.25 µg/mL [6, 12]: ~100%; cytotoxicity at 0.25 µg/mL [6, 13]: 100%; cytotoxicity at 0.5 µg/mL ([6]; Mus musculus, L929, 12 h, 1 min, 560-610 nm, Y=I): ~90%; cytotoxicity at 0.5 µg/mL [6, 12]: ~100%; cytotoxicity at 0.5 µg/mL [6, 13]: 100%

The next lines start with results.

Row | Absorption (max) Peak Under no existence of DNA [1] [nm] | Absorption (max) Peak Under existence of DNA [2] [nm] | SMILES | Molar absorption coefficient ε [1] [L/mol/cm] | adverse effects (acute toxicity) [3] | effectiveness in photochemical treatment of human cancer cells growing in live mice [4] | change on irradiation of mice without tumour [5] | affinity for cancer cells versus normal cells [5] | cell killing without irradiation [6] | also measured
4 | 625 | 660 | CN(C)c1ccc(C=CC(C=Cc2ccc(N(C)C)cc2)=Cc2cc(-c3ccccc3)[o+]c(-c3ccccc3)c2)cc1 [Compound 11] |  |  |  |  |  |  | 
5 | 690 | 720 | CCN(CC)c1ccc(C=Cc2ccc(C=Cc3cc(-c4ccccc4)cc(-c4ccccc4)[o+]3)cc2)cc1 [Compound 17] |  |  |  |  |  |  | 
6 | 660 | 720 | CN(C)c1ccc(C=CC=Cc2cc(-c3ccccc3)[o+]c(-c3ccccc3)c2)cc1 [Compound 9] |  |  |  |  |  |  | 
